Experimental findings from the NIST ThermoML archive (doi:10.1021/je900609f) are described below.

Each structure is given as a SMILES string. ± gives the expanded uncertainty stated by the source.

For this data set the following is noted: Crystal; visual observation.

Regarding `C=CC(=O)Nc1cc(F)c(Br)c(F)c1` [N-(4-bromo-3,5-difluorophenyl)acrylamide], the Normal melting temperature was found to be 182 ± 0.7 °C.
